Reference: patent US20230242654A1, “REAGENTS FOR EXPANDING CELLS EXPRESSING RECOMBINANT RECEPTORS” (Juno Therapeutics, Inc., priority 2017, published 2023)

Experiments:
[1] = system: anti-BCMA CAR T cells; assay: Cytokines in culture supernatant 24 hours after addition of BCMA-conjugated beads; assay type: cell-based, human
Procedure: Cryofrozen anti-BCMA CAR T cells, produced substantially as described in Example 2 and formulated at a 1:1 ratio of CD4+ and CD8+ T cells, were thawed. Unless otherwise indicated, beads (diameter about 4.5 μm) from a 5 μg/ml or 50 μg/ml BCMA-conjugated bead composition, generated as described in Example 1, were added to the wells at a ratio of T cells to beads of 1:2 in the presence or absence of 5 μM lenalidomide. Cells were incubated up to 14 days and analyzed at various time points for cytokine secretion, cell expansion by flow cytometry for the EGFRt surrogate marker, and for cytolytic activity.
Twenty four hours after addition of BCMA-conjugated beads, the presence of TNF-α, IFNγ, and IL-2 in culture supernatants was assessed.
In a further exemplary study, two different anti-BCMA CAR T cell compositions were generated from different donors, each containing T cells expressing the same anti-BCMA CAR. The cells were thawed and incubated with beads (diameter about 4.5 μm) from a 5 μg/mL or 200 μg/mL BCMA-conjugated bead composition generated as described in Example 1. The incubation was carried out at a ratio of T cells to beads of 1:1 in the presence or absence of 1 μM or 5 μM lenalidomide. Twenty four hours after addition of BCMA-conjugated beads, IL-2 production by the anti-BCMA CAR+ T cells was assessed in culture supernatants.

[2] = system: anti-BCMA CAR T cells; assay: Cytokine production after 24 hours BCMA bead stimulation with or without lenalidomide; assay type: cell-based, human
Procedure: In another study, recombinant human BCMA-conjugated beads were used to stimulate CAR T cells at various concentrations to titrate the magnitude of stimulation, either low ([…]), medium ([…]), and high (200 μg/mL) stimulation. […] Cells were stimulated with BCMA conjugated beads for 24 hours in the presence of 0.1 μM or 1.0 μM lenalidomide, or vehicle control. A protein transport inhibitor was added in the final hours of incubation, and cells were stained for intracellular IL-2, IFN-γ, and TNF-α.

[3] = system: Anti-BCMA CAR-T cells; assay: Phenotype of anti-BCMA CAR T cells stimulated 7 days on BCMA beads with or without lenalidomide; assay type: cell-based, human
Procedure: Anti-BCMA CAR-T cells, generated from samples from representative healthy donors or multiple myeloma patient derived material, and cultured with 50 μg/mL BCMA-Fc conjugated beads (generated as described in Example 1) at a ratio of 1:1 bead:CAR+ T cell for 7 days, in the presence of […] lenalidomide or a vehicle control. Expression of CD25, PD-1, Tim3 and Lag3 on CAR T cells (using an antibody for surrogate CAR marker) cultured under the different conditions then was assessed by flow cytometry.

[4] = system: RPMI-8226 target cells; assay: Cytolytic activity and IFN-gamma against target cells after bead incubation; assay type: cell-based
Procedure: Cytolytic activity of CAR+ T cells after incubation with BCMA-conjugated beads was assessed by incubation with the BCMA-expressing target cell line RPMI-8226, which is a BCMA+ multiple myeloma cell line. After seven days of incubation of anti-BCMA CAR+ T cells with BCMA-conjugated beads (5 μg/ml or 50 μg/ml) in the presence or absence of lenalidomide, the beads were removed from the cultures and the cells were plated with the RPMI-8226 target cells at a ratio of effector cells to target cells of 3:1 or 1:1 in the further presence or absence of 5 μM lenalidomide. To perform the cytolytic assay, the target RPMI-8226 cells were labeled with NucLight Red (NLR) to permit tracking of target cells by microscopy. Cytolytic activity was assessed by measuring the loss of viable target cells over a period of four days, as determined by red fluorescent signal (using the INCUCYTE® Live Cell Analysis System, Essen Bioscience). The number of viable cells was normalized to cells at day 0 prior to incubation with the RPMI-8226 target cells.
In a further exemplary study, anti-BCMA CAR+ T cells were untreated, or were incubated for 24 hours or for seven days with beads (diameter about 4.5 μm) from a 50 μg/mL BCMA-conjugated bead composition generated as described in Example 1 at a ratio of beads to cells of 1:1. The anti-BCMA CAR T+ cells were removed from the cultures and incubated with RPMI-8226 target cells at a 0.3:1 or 1:1 effector cell to target cell ratio. To assess cytokine response to the target cells after incubation with BCMA-conjugated beads, IFN gamma levels were measured in the supernatant.

[5] = system: Healthy donor-or patient-derived CART cells; assay: Cytokine production on BCMA or BCMA/PD-L1 conjugated beads; assay type: cell-based, human; conditions: 1 μM, in the presence of PD-L1; versus vehicle
Procedure: In another study, cells were cultured in the presence of BCMA beads generated as described in Example 1, with or without additional conjugation of human recombinant PD-L1-Fc. Healthy donor-or patient-derived CART cells were stimulated in the presence of BCMA-conjugated beads or BCMA/PD-L1 conjugated beads for 24 hours in the presence of 1 μM lenalidomide. Cytokine production was measured in the supernatant. […] The results were consistent with a conclusion that anti-BCMA CAR-T cytokine production following incubation with BCMA-conjugated beads was increased by lenalidomide in the presence of PD-L1-mediated inhibition.

[6] = medium stimulation (50 μg BCMA beads), 24 hours, 1 μM

## Nc1cccc2c1CN(C1CCC(=O)NC1=O)C2=O (stereo not drawn) [lenalidomide]
[1]; 1 μM or 5 μM, 200 or 5 μg/mL beads
  cytokine (IL-2) production: increased cytokine production in the presence of both the high and low antigen stimulation
[1]; 5 μM lenalidomide, 24 hours
  BCMA-induced CAR+ T cell cytokine production: increased BCMA-induced CAR+ T cell cytokine production
[2]; 0.1 μM or 1.0 μM, all stimulation levels, CD4+ and CD8+
  percentage of IFN-γ+ and TNF-α+ intracellular staining: increased the percentage
[2]; 5-μg stimulation
  percentage of IL-2+ CAR+ T cells: increasing the percentage
[2]; 50-μg and 200-μg stimulation
  percentage of IL-2+ CAR+ T cells: decreasing the percentage
[2]; absence of stimulation
  CAR T cytokine production: had no effect on CAR T cytokine production
[2]; [6]
  increase in IL-2 concentration compared with vehicle control: 200%
  increase in TNF-α concentration compared with vehicle control: 200%
[2]; medium stimulation, 24 hours
  IFN-γ concentration compared with vehicle control: donor-dependent increases
[3]; 1 μM, 7 days on 50 μg/mL BCMA beads, 3 healthy donors
  CAR+ viability: significantly increased CAR+ viability
[3]; 1 μM, 7 days on BCMA beads
  surface CD25 expression (MFI): increasing CD25 expression
  surface PD-1 expression (MFI): reduced PD-1 expression
  total cell count: did not alter the total cell count
[3]; CD4+ and CD8+ CAR+ populations
  percentage positive for Lag3 expression: increased
[3]; CD4+ population
  percentage of PD-1+ cells: decrease in the percentage of PD-1+ cells
[3]; CD8+ population
  surface expression of Tim3: increased the surface expression of Tim3
[3]; vehicle- versus lenalidomide-treated
  percentage CAR+: no significant differences
[4]; RPMI 8226 cells cultured in the presence of lenalidomide, no T cells
  target cell viability: did not directly influence target cell viability
[4]; lenalidomide during the seven day bead incubation prior to the killing assay
  cytolytic activity of the CAR+ T cells: increased cytolytic activity of the CAR+ T cells
[4]; lenalidomide present during the cell killing assay
  killing activity: did not substantially affect killing activity
[5]
  secreted cytokine levels: potentiated secreted cytokine levels
